Experimental data taken from the NIST ThermoML archive (doi:10.1016/j.jct.2016.10.031).

Settings: for molar entropy: 101.33 kPa, Small (less than 1 g) adiabatic calorimetry

CC(C)(C)c1ccc(Oc2ccc([N+](=O)[O-])cc2)cc1 [1-(tert-butyl)-4-(4-nitrophenoxy)benzene]
Settings	Glass transition temperature [°C]	Triple point temperature [K]	molar entropy [J/K/mol]
5 K, Crystal	–	–	0.4639
10 K, Crystal	–	–	3.11
15 K, Crystal	–	–	7.882
20 K, Crystal	–	–	14.05
25 K, Crystal	–	–	21.04
30 K, Crystal	–	–	28.52
35 K, Crystal	–	–	36.25
40 K, Crystal	–	–	44.07
45 K, Crystal	–	–	51.97
50 K, Crystal	–	–	59.86
60 K, Crystal	–	–	75.08
70 K, Crystal	–	–	89.8
80 K, Crystal	–	–	104.1
90 K, Crystal	–	–	117.98
100 K, Crystal	–	–	131.7
110 K, Crystal	–	–	145.09
120 K, Crystal	–	–	158.31
130 K, Crystal	–	–	171.36
140 K, Crystal	–	–	184.17
150 K, Crystal	–	–	196.89
160 K, Crystal	–	–	209.52
170 K, Crystal	–	–	222
180 K, Crystal	–	–	234.38
190 K, Crystal	–	–	246.69
200 K, Crystal	–	–	259
210 K, Crystal	–	–	271.13
220 K, Crystal	–	–	283.27
230 K, Crystal	–	–	295.33
240 K, Crystal	–	–	307.47
250 K, Crystal	–	–	319.44
260 K, Crystal	–	–	331.5
270 K, Crystal	–	–	343.55
280 K, Crystal	–	–	355.53
290 K, Crystal	–	–	367.58
298.15 K, Crystal	–	–	377.39
300 K, Crystal	–	–	379.64
310 K, Crystal	–	–	391.78
320 K, Crystal	–	–	403.92
330 K, Crystal	–	–	416.14
334.8 K, Crystal	–	–	422.04
334.8 K, Liquid	–	–	482.07
340 K, Liquid	–	–	488.97
350 K, Liquid	–	–	502.03
360 K, Liquid	–	–	514.91
370 K, Liquid	–	–	527.55
Crystal, Adiabatic calorimetry	–	334.8	–
Glass, Adiabatic calorimetry	-39.3	–	–
